Measured values from ChEMBL document CHEMBL2074256, “HIV protease inhibitors are inhibitors but not substrates of the human breast cancer resistance protein (BCRP/ABCG2)” (J Pharmacol Exp Ther, 2004).

Biological target: T1, Broad substrate specificity ATP-binding cassette transporter ABCG2 (Homo sapiens, UniProt Q9UNQ0)
T1 sequence (Q9UNQ0 whole entry): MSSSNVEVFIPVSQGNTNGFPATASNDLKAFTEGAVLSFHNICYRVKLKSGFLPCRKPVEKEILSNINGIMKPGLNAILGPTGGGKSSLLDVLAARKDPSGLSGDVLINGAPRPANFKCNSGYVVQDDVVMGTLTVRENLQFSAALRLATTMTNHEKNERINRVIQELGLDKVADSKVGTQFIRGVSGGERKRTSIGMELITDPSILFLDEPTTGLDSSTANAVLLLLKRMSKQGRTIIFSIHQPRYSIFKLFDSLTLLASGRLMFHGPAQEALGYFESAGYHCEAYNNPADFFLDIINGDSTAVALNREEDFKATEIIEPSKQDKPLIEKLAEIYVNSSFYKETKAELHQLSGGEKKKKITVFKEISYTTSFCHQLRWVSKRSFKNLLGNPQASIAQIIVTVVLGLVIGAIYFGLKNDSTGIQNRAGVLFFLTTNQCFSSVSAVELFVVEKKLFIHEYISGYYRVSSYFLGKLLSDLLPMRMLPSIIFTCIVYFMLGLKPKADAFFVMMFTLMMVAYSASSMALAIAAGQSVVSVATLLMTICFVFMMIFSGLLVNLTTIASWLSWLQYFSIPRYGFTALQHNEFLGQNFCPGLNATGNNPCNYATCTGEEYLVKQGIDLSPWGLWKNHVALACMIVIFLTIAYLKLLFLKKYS
Assay: TP_TRANSPORTER: increase in mitoxantrone intracellular accumulation in BCRP-expressing HEK cells
Assay type: functional, cell-based, HEK293

| SMILES | IC50 [µM] |
| --- | --- |
| Cc1c(O)cccc1C(=O)N[C@@H](CSc1ccccc1)[C@H](O)CN1C[C@H]2CCCC[C@H]2C[C@H]1C(=O)NC(C)(C)C | 12.5 |
| CC(C)(C)NC(=O)[C@@H]1C[C@@H]2CCCC[C@@H]2CN1C[C@@H](O)[C@H](Cc1ccccc1)NC(=O)[C@H](CC(N)=O)NC(=O)c1ccc2ccccc2n1 | 19.5 |
